Results taken from BindingDB's records for doi:10.1016/j.bmcl.2003.10.070 (Roche Palo Alto, 2004).

Target: Prostacyclin receptor (Rattus norvegicus) (UniProt P43253)
Assay: Binding affinity towards prostacyclin receptor on rat NG-108-15 neuroblastoma cells, using [3H]iloprost as a radioligand

Chain of Prostacyclin receptor (Rattus norvegicus) (P43253 whole entry, looked up): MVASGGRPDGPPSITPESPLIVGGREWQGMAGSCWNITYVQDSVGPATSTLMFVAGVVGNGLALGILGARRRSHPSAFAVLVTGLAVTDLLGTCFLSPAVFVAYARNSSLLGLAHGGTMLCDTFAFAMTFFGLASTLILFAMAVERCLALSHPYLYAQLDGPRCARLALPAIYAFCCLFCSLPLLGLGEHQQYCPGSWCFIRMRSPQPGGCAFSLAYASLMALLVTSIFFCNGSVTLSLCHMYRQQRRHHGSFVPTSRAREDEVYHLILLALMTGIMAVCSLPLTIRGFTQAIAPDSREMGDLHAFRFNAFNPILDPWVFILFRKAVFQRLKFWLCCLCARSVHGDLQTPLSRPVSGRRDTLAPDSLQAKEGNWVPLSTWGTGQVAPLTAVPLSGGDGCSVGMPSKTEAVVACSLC

Ki	Compound
631 nM	Clc1cccc(Cl)c1Sc1ccc(NC2=NCCN2)cc1
1260 nM	COc1ccc(Sc2ccc(NC3=NCCCCN3)cc2)cc1
79 nM	CS(=O)(=O)Nc1ccc(Sc2ccc(NC3=NCCN3)cc2)cc1
631 nM	c1cc(Sc2ccc3c(c2)OCCO3)ccc1NC1=NCCN1
32 nM	CC(C)Oc1ccc(Sc2ccc(NC3=NCCN3)cc2)cc1
100 nM	Cc1ccc(Sc2ccc(NC3=NCCN3)cc2)cc1
79 nM	COc1ccc(Sc2ccc(NC3=NCCCN3)cc2)cc1
79 nM	Clc1ccc(Sc2ccc(NC3=NCCN3)cc2)cc1
50 nM	FC(F)(F)c1ccc(Sc2ccc(NC3=NCCN3)cc2)cc1
631 nM	COc1ccc(Sc2ccccc2NC2=NCCN2)cc1
3980 nM	COc1ccccc1Sc1ccc(NC2=NCCN2)cc1
316 nM	O=[N+]([O-])c1ccc(Sc2ccc(NC3=NCCN3)cc2)cc1
794 nM	COc1ccc(OC)c(Sc2ccc(NC3=NCCN3)cc2)c1
794 nM	c1ccc(Sc2ccc(NC3=NCCN3)cc2)cc1
251 nM	CC(C)c1ccc(Sc2ccc(NC3=NCCN3)cc2)cc1
1000 nM	COc1ccc(-c2ccc(NC3=NCCN3)cc2)cc1
398 nM	COc1cccc(Sc2ccc(NC3=NCCN3)cc2)c1
398 nM	CC(C)(C)c1ccc(Sc2ccc(NC3=NCCN3)cc2)cc1
40 nM	CCOc1ccc(Sc2ccc(NC3=NCCN3)cc2)cc1
50 nM	CCOC(=O)c1ccc(Sc2ccc(NC3=NCCN3)cc2)cc1
3980 nM	COc1ccc(Sc2cccc(NC3=NCCN3)c2)cc1
158 nM	COc1ccc(Oc2ccc(NC3=NCCN3)cc2)cc1

The remaining lines, values behind:

Compound	Ki
COc1ccc(Sc2ccc(NC3=NC(C)(C)CN3)cc2)cc1	631 nM
COc1ccc(Cc2ccc(NC3=NCCN3)cc2)cc1	25 nM
Clc1ccc(Sc2ccc(CNC3=NCCN3)cc2)cc1	501 nM
COc1ccc(Sc2ccc(C(=N)N)cc2)cc1	1260 nM
COc1ccc(N(C)c2ccc(NC3=NCCN3)cc2)cc1	501 nM
COc1ccc(Sc2ccc(NC3=NC(C)CN3)cc2)cc1 (configuration not stated)	63 nM
c1ccc2c(c1)sc1ccc(NC3=NCCN3)cc12	3160 nM
COc1ccc(Sc2ccc(CN3CCCC3)cc2)cc1	10000 nM
COc1ccc(C(=O)c2ccc(NC3=NCCN3)cc2)cc1	316 nM
COc1ccc(S(=O)(=O)c2ccc(NC3=NCCN3)cc2)cc1	158 nM
CC/N=C(\N)Nc1ccc(Sc2ccc(Cl)cc2)cc1	631 nM
COc1ccc(Sc2ccc(CC3=NCCN3)cc2)cc1	5010 nM
COc1ccc(Sc2ccc(C3=NCCN3)cc2)cc1	316 nM
c1cc(SC2CCCCC2)ccc1NC1=NCCN1	3160 nM
CC/N=C(\N)Nc1ccc(Sc2ccc(OC)cc2)cc1	251 nM
